# Read-outs that look alike come from different tables or passages of the source. Square brackets hold non-standard residues; d marks the D form. Ends that are not written are not given here.
# Experiments:
# [1] = system: mast cells; experiment: Mast cell degranulation assay (tryptase activity); assay type: cell-based, mouse; set-up: Mast cell degranulation (relative tryptase activity): dose or concentration left out as unconfirmed; details: for Dose dependence of mast cell degranulation: increasing concentrations, FIG. 3
# [2] = system: rat 3PVO model of stroke; experiment: Rat 3PVO model of stroke, lodoxamide co-formulation; assay type: in vivo; details: FIG. 15
# Description: Methods for Three pial vessel occlusion model of ischemia (3PVO): Experiments were performed on fasted rats (free overnight access to water but not food). […] In brief, rats were anesthetized with a 0.5 ml/kg intramuscular injection of ketamine (100 mg/kg), acepromazine (2 mg/kg), and xylazine (5 mg/kg), supplemented with one-third of the initial dose as required. A rectal temperature was monitored and the animal body temperature was maintained at 37° C. by using a heating pad. The skull was exposed via a midline incision and scraped free of tissue. Using a dissecting microscope and a pneumatic dental drill, a 6- to 8-mm rectangular cranial window was made over the right somatosensory cortex (2 mm caudal and 5 mm lateral to bregma) and the loose piece of skull was removed while keeping the dura intact. The 3 pial arteriolar middle cerebral artery branches were electrically cauterized around the barrel cortex area. Incision was sutured with 3.0 silk sutures. Animals were returned to individual cages under a heating lamp to maintain body temperature until the rats fully recovered. Food and water was supplied. One hour after 3PVO ischemia the rats were injected with 3 μM/kg Tat-NR2B9c or Rv-Tat-NR2B9c intravenously through tail vein. […] Images were scanned (CanoScan, 4200F, Canon). Infarct percentage was calculated per slice using Image J software (NIH). […]
# [3] = system: Sprague Dawley rats, P3VO model of stroke; experiment: Pial 3 vessel occlusion (P3VO) model of stroke, infarct size; assay type: in vivo, rat; details: 3 nM/g i.v. 1 h after stroke, vs saline
# [4] = system: rats; experiment: Mean arterial pressure (MAP) in rats after Tat peptides with or without anti-inflammatory agents
# [5] = system: Sprague Dawley rats; experiment: MAP in rats: lodoxamide co-formulation or cromolyn infusion with Tat-NR2B9c; assay type: in vivo, rat; details: for Effect on drop in MAP resulting from Tat-NR2B9c: cromolyn infused for three minutes immediately before Tat-NR2B9c, FIG. 13B
# Description: Animals (male, Sprague Dawley) were allowed to eat and drink before surgery. Animals were put to sleep in a chamber with 2% isoflurane and 1 L oxygen. Once asleep, rat was transferred to a face mask at 1% isoflurane and a gas of 1 L oxygen. PE50 tubing was used for connection of the femoral artery and vein. These arteries and veins provide access for continual monitoring of arterial pressure and for drug infusion (50 mg per kg in a volume of 2 ml per kg injected with in 2 minutes). Surgeries were done on the left side. Animal's blood pressure and body temperature was monitored for 90 minutes.
# [6] = system: animal model of infarction; details: cited from earlier work
# [7] = Table 1 comment; cited from earlier work
# [8] = molecular target: PSD95 / NMDAR 2B (Homo sapiens, UniProt P78352); details: reported by Bach; cited from earlier work
# Chain of PSD95 / NMDAR 2B (P78352 whole entry): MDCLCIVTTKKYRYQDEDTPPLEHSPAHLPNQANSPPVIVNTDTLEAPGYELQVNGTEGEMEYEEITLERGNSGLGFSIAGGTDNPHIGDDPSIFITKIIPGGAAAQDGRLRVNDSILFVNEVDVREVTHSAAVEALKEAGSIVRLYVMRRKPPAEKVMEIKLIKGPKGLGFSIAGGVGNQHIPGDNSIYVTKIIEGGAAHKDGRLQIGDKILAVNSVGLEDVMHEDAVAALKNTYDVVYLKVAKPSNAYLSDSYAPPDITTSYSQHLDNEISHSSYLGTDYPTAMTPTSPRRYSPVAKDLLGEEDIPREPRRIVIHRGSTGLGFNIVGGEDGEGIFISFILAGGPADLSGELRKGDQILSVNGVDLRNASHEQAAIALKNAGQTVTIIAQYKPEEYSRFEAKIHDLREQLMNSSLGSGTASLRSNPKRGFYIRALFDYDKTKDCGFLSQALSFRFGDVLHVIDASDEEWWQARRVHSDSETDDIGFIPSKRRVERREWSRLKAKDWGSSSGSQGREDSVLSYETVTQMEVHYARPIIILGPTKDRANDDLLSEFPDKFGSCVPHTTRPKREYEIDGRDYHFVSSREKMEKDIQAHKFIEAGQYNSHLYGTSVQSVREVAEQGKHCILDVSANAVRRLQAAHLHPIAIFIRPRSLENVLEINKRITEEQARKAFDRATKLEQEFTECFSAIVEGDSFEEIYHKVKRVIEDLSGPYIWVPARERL
# [9] = system: Beagle dogs; experiment: Antihistamine pre-treatment before Tat-NR2B9c in dogs; details: benadryl 1 mg/kg 30 minutes before 12.5 mg/kg Tat-NR2B9c; female dog
# [10] = system: cerebral ischemia; details: reported in WO 2008/014917; cited from earlier work
molecule,measurement,setting,value
KLSSIESDV (Synthetic pharmacologic agent) [NR2B9c],Mast cell degranulation (relative tryptase activity),[1]; FIG. 2,did not
same,"Mast cell degranulation, Tat sequence variants","[1]; all at 50 μM, Table 5 prints 125 mg/ml, FIG. 4",did not elicit this reaction
H-YGRKKRRQRRRKLSSIESDV-OH [Tat-NR2B9c],Infarction size relative to vehicle control,[2],significantly inhibited infarction size
same,Dose dependence of mast cell degranulation,[1],dose dependent
same,Infarct size 24 hours after P3VO surgery,[3]; female rats,complete lack of infarct
same,Infarct size 24 hours after P3VO surgery,[3]; male rats,significantly decreased infarct size
YGRKKRRQRRRKLSSIEADA (Synthetic Tat-NR2B9c peptide with 2 point mutations in the PSD-95 binding domain) [AA],Dose dependence of mast cell degranulation,[1],dose dependent
"O=C(O)c1cc(=O)c2c(OCC(O)COc3cccc4oc(C(=O)O)cc(=O)c34)cccc2o1 [cromolyn, 5,5′-(2-hydroxypropane-1,3-diyl)bis(oxy)bis(4-oxo-4H-chromene-2-carboxylic acid)]",Effect on decline of MAP due to Rv-Tat-NR2B9c,"[4]; cromolyn before Rv-Tat-NR2B9c, FIGS. 8E and F",significantly inhibited decline of MAP values
same,Effect on MAP in the absence of Tat-NR2B9c,[4]; cromolyn plus saline control,did not itself affect MAP
same,Effect on drop in MAP resulting from Tat-NR2B9c,[5],completely abrogate a drop in MAP
same,Effect on drop in MAP resulting from Tat-NR2B9c,[5]; listed as Cromolyn,completely abrogated the drop in MAP
same,Direct activity in inhibiting infarctions,[6]; administered i.c.v.,has direct activity in inhibiting infarctions
same,Direct activity in inhibiting infarctions,[6]; administered intravenously,not intravenously
NCCc1ccc(O)c(O)c1 [Dopamine],BBB crossing,[7],Cannot cross
COc1ccc(CN(CCN(C)C)c2ccccn2)cc1 [pyrilamine],Reduction of maximal decline in blood pressure due to Tat-NR2B9c,"[4]; pyrilamine, FIGS. 10A-D",did not achieve statistical significance
NC(=O)CN1CCCC1=O [Piracetam],BBB crossing,[7],Cannot cross
"N#Cc1cc(NC(=O)C(=O)O)c(Cl)c(NC(=O)C(=O)O)c1 [lodoxamide, 2-[2-chloro-5-cyano-3-(oxaloamino)anilino]-2-oxoacetic acid]",Effect on drop in MAP resulting from Tat-NR2B9c injection,"[5]; 6 mg/kg lodoxamide co-formulated with Tat-NR2B9c (3 mg/kg, 3 mM/kg elsewhere in the source), 2 minute infusion, FIG. 13A",completely abrogate the drop in MAP
IESDV (synthetic pentamer peptide from the C-terminus of NMDAR 2B),Inhibition of binding of NMDAR 2B to PSD95,[8],effective in inhibiting binding of NMDAR 2B to PSD95
CN[C@H](CC(C)C)C(=O)N[C@H]1C(=O)N[C@@H](CC(N)=O)C(=O)N[C@H]2C(=O)N[C@H]3C(=O)N[C@H](C(=O)N[C@H](C(=O)O)c4cc(O)cc(O)c4-c4cc3ccc4O)[C@H](O)c3ccc(c(Cl)c3)Oc3cc2cc(c3O[C@@H]2O[C@H](CO)[C@@H](O)[C@H](O)[C@H]2O[C@H]2C[C@](C)(N)[C@H](O)[C@H](C)O2)Oc2ccc(cc2Cl)[C@H]1O [Vacomycin],halflife,[7],"uptake, 4-6 hr"
CNC(=C[N+](=O)[O-])NCCSCc1ccc(CN(C)C)o1 [Ranitidine],Effect of the agent itself on MAP,[4]; Ranitidine only,no effect on MAP itself
CN(C)CCOC(c1ccccc1)c1ccccc1 [diphenhydramine],Effect of the agent itself on blood pressure,[4]; diphenhydramine 1 mg/kg,did not itself reduce blood pressure
same,Effect on decline of blood pressure due to Tat-NR2B9c,[4]; diphenhydramine 1 mg/kg,not observed to have a significant effect
same,Effect of the agent itself on blood pressure before Tat-NR2B9c,[4]; diphenhydramine 12.5 mg/kg,caused a sharp reduction in blood pressure
same,Effect on decline in blood pressure due to Tat-NR2B9c,"[4]; diphenhydramine 12.5 mg/kg, FIGS. 9A-D",significantly inhibited decline in blood pressure
same,Reaction after pre-treatment,[9],no reaction
N[C@@H](Cc1ccc(O)c(O)c1)C(=O)O [Levodopa],halflife,[7],halflife = 1.5 hrs
vdseisslk-rrrqrrkkrgyin ([dV][dD][dS][dE][dI][dS][dS][dL][dK][dR][dR][dR][dQ][dR][dR][dK][dK][dR]G[dY][dI][dN]; also: retro-inverso),Inhibition of cerebral ischemia,[10],effective in inhibiting cerebral ischemia

# From US10046060B2, “Co-administration of an agent linked to an internalization peptide with an anti-inflammatory” (NoNO Inc., priority 2007, dated 2018)
